Test results taken from US20050266012A1 (priority 2004, published 2005).

Assays:
[1] = test system: P16 transcription from a methylation-silenced promoter; conditions: prostate cancer cells that grow in nude mice; cited from earlier work
hCgA-pulsed DCs [2] = test: Ex vivo cytotoxic assay, hCgA-specific cytolysis by splenocytes; format: in vivo; conditions: hCgA-immunized BALB/c mice; 5 mg/kg daily intramuscular for 7 days; P<0.01
Protocol: (§1) Aldrithiol-2 (AT-2)-inactivated HIV (10^9/50 μl) (LU and ANDRIEU, J. Virol., vol. 75, p: 8949-56, 2001) or human chromogranin A (hCgA, a protein associated with neuro-endocrine tumours (DEGORCE et al., Br. J. Cancer., vol. 79, p: 65-71, 1999); 10 μg/50 μl) plus incomplete Freund's adjuvant (IFA) (50 μl) were injected subcutaneously into 4- to 6-week-old male BALB/c mice (Institute of Laboratory Animal Science, Beijing, China). Mice immunized with AT-2-inactivated HIV (n=12) or hCgA (n=12) were randomly divided into two subgroups. One subgroup (n=6) received daily intramuscular injection of 5-azacytidine (Sigma, St Louis, Mo.) at a dose of 5 mg/kg for 7 days and the other subgroup (n=6) received 0.9% sodium chloride as control. Animals were killed at day 7 for ex vivo analysis. […]
(§2) Splenocytes were taken from 7-day-immunized mice and plated into Micro Tubes-Bulk (Bio-Rad, Hercules, Calif.) in the presence of CFSE (Molecular Probes, PoortGebouw, The Netherlands)-labelled AT-2-HIV- or hCgA-pulsed dendritic cells (DCs) at different E:T ratios for 4 h at 37° C. […] Target cytolysis was analyzed on a FACSCalibur (BD Immunocytometry System, San Jose, Calif.). Virus- or tumour-specific cytolytic activity was determined by calculating the percentage of CFSE/PI-staining DCs after subtraction of the non-specific CFSE/PI-staining of non-pulsed DCs. […]

AT-2-HIV-pulsed DCs [3] = test: In vivo cytotoxic assay, HIV-specific cytolysis; conditions: AT-2-HIV-immunized BALB/c mice; 5 mg/kg daily intramuscular for 7 days; P<0.01
Protocol: (§3) Aldrithiol-2 (AT-2)-inactivated HIV (10^9/50 μl) (LU and ANDRIEU, J. Virol., vol. 75, p: 8949-56, 2001) or human chromogranin A (hCgA, a protein associated with neuro-endocrine tumours (DEGORCE et al., Br. J. Cancer., vol. 79, p: 65-71, 1999); 10 μg/50 μl) plus incomplete Freund's adjuvant (IFA) (50 μl) were injected subcutaneously into 4- to 6-week-old male BALB/c mice (Institute of Laboratory Animal Science, Beijing, China). Mice immunized with AT-2-inactivated HIV (n=12) or hCgA (n=12) were randomly divided into two subgroups. One subgroup (n=6) received daily intramuscular injection of 5-azacytidine (Sigma, St Louis, Mo.) at a dose of 5 mg/kg for 7 days and the other subgroup (n=6) received 0.9% sodium chloride as control. Animals were killed at day 7 for ex vivo analysis. In addition, non-immunized mice (n=6) injected with IFA alone were also killed on the same day to establish a background control.
(§4) This assay was performed as described previously (AICHELE et al., Immunity, vol. 6, p: 519-29, 1997). Briefly, target DCs were prepared from BALB/c bone marrow cell suspensions (LUTZ et al., above mentioned, 1999). […] In vivo HIV- or hCgA-specific cytolysis was assessed by calculating the ratio of non-pulsed DCs/pulsed DCs. […]

[4] = test system: relapsed or refractory acute myelogenous leukaemia (AML) and myolodysplastic syndrome (MDS); conditions: cited from earlier work
AT-2-HIV-pulsed DCs [5] = test: Ex vivo cytotoxic assay, HIV-specific cytolysis by splenocytes; format: in vivo; conditions: AT-2-HIV-immunized BALB/c mice; 5 mg/kg daily intramuscular for 7 days; P<0.01
Protocol: as §1, §2

latent EBV promoters = conditions: patients with EBV-associated tumors; cited from earlier work
hCgA-pulsed DCs [6] = test: In vivo cytotoxic assay, hCgA-specific cytolysis; conditions: hCgA-immunized BALB/c mice; 5 mg/kg daily intramuscular for 7 days; P<0.01
Protocol: as §3, §4

solid tumors = conditions: phase II trials, variety of doses and schedules; cited from earlier work

| Compound | P16 transcription from a methylation-silenced promoter [1] | Increase of ex vivo hCgA-specific cytolysis of hCgA-pulsed DCs by splenocytes vs untreated immunized animals (hCgA-pulsed DCs [2]) [fold] | Increase of in vivo HIV-specific cytolysis of AT-2-HIV-pulsed DCs vs untreated immunized animals (AT-2-HIV-pulsed DCs [3]) [fold] | Clinical activity as single agent [4] | Increase of ex vivo HIV-specific cytolysis of AT-2-HIV-pulsed DCs by splenocytes vs untreated immunized animals (AT-2-HIV-pulsed DCs [5]) [fold] | CpG methylation of latent EBV promoters in tumor tissues (latent EBV promoters) | Increase of in vivo hCgA-specific cytolysis of hCgA-pulsed DCs vs untreated immunized animals (hCgA-pulsed DCs [6]) [fold] | Clinical results of single agent in solid tumors (solid tumors) |
| --- | --- | --- | --- | --- | --- | --- | --- | --- |
| CCN(CC)CCNC(=O)c1ccc(N)cc1 [procanaimide] | reactivate the P16 transcription | – | – | – | – | – | – | – |
| Nc1ncn([C@@H]2O[C@H](CO)[C@@H](O)[C@H]2O)c(=O)n1 [5-Azacytidine] | – | > 2 | > 3 | limited activity | > 2 | reversed the dense CpG methylation | > 3 | uniformly disappointing |
